How the values were obtained:
[1] = major metabolite of sesamin; cited from earlier work
aromatase = molecular target: T1, aromatase (Homo sapiens, UniProt P11511); conditions: cited from earlier work
T1 sequence (P11511 1-503): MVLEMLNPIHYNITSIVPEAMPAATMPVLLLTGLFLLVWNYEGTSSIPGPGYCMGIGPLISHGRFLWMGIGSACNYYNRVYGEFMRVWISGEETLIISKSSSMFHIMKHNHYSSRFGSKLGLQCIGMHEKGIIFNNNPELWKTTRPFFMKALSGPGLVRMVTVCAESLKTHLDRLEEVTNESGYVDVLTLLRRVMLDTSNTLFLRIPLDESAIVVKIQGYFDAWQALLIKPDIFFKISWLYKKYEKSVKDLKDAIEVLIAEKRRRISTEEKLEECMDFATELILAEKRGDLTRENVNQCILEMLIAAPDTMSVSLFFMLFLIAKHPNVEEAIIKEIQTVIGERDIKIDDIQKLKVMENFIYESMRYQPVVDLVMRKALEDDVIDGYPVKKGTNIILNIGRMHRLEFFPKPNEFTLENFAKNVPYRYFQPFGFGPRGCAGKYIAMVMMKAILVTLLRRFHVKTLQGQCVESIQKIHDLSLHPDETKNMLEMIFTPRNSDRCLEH

[2] = cited from earlier work
[3] = tested on: hot flashes in female subjects experiencing symptoms of perimenopause; assay: Clinical trial of dietary supplement formulas on frequency and severity of hot flashes; format: in vivo, women; conditions: summary of the trials
Procedure: In a clinical trial explained below, 36 mg of HMR Lignan was used and in another example, 20 mg was initially used. In the same clinical trial, the carotenoid such as lycopene was used. The lycopene could be formed as a lycopene complex that includes at least one of phytoene, phytofluene, beta-carotene, tocopherols and phytosterols. In an example, 2 to 10 mg of lycopene was used and in another example, 4 to 8 mg of lycopene was used. In a clinical trial explained below, either 8 or 4 mg of lycopene was used and in an example, 0 mg in order to determine the efficacy of the lycopene relative to the HMR Lignan and other components. The composition also included 40 to 120 mg of Diindolymethane (DIM) or 30 to 140 mg of Diindolymethane, and in an example, 50 milligrams of DIM was used in one trial and 100 milligrams in another trial. About 40 to 80 mg of cranberry was used and in an example, 60 milligrams of cranberry was used as cranberry powder, which gave the coloring and other benefits. Cranberry is used to help relieve adverse urinary symptoms and aid and treat urinary tract infections. Other carotenoids that may possibly be used include at least one of astaxanthin, zeaxanthin, lutein, and xanthophylis.
A study was conducted to evaluate the effectiveness of a dietary supplement formulation on the reduction and severity of hot flashes in women. […]

[4] = tested on: endometrial, breast and lung cancer cell lines; conditions: compared with alpha or beta-carotene; cited from earlier work
[5] = tested on: estrogen sensitive human breast and endometrial cancer cells; conditions: cell cycle progression in G0/G1 phase; cited from earlier work

Structure (SMILES): O=C1OC[C@H](Cc2cccc(O)c2)[C@H]1Cc1cccc(O)c1 [Enterolactone, enterolactone]
- Elimination half life [1]: less than 6 hours
- Aromatase activity (aromatase): inhibit aromatase activity

Structure (SMILES): CC(C)=CCC/C(C)=C/C=C/C(C)=C/C=C/C(C)=C/C=C/C=C(C)/C=C/C=C(C)/C=C/C=C(\C)CCC=C(C)C [Lycopene]
- Solubility in water [2]: insoluble
- Conclusion on control of hot flashes [3]: work alone to control hot flashes
- Inhibition of proliferation, relative potency [4]: more potent that alpha or beta-carotene
- Inhibition of IGF-1 induced proliferation [5]: inhibit

From patent US10172826B2, “Composition and method to treat and alleviate symptoms of hot flashes in a subject” (U.S. NUTRACEUTICALS, LLC, priority 2015, dated 2019)
